Laboratory results from patent US4130647A, “Methods for treating congestive heart failure and ischemic heart disease” (priority 1977, dated 1978).
Values joined by “and” are separate entries in the source; they are usually repeats but may differ in a detail not shown here. Equal values may be shown once.

Columns and labels:
[1] = system: patients with congestive heart failure; assay: Dose-finding of oral trimazosin in congestive heart failure (Example 2); assay type: in vivo, human; conditions: for Change in Heart Rate at Peak / Change in Systolic Pressure at Peak / Time to Peak Effect: individual patients
Protocol: Studies were performed in male patients with clinical and radiographic evidence of congestive heart failure due to ischemic or primary cardiomyopathy. To be eligible for the study patients had to have supine systolic blood pressure of at least 100 mm. Hg. and a supine resting cardiac index below 2.5 L/min./m^2, as measured by the non-invasive carbon dioxide rebreathing method [Franciosa, et al., J. Lab. Clin. Med., 88, 662 (1976) and Franciosa, et al., Circulation, 55, 449 (1977)]. Six patients met these criteria and were selected for the study.
After obtaining written informed consent, patients were entered into a 2 day dose finding period during which single daily doses of trimazosin were given and blood pressure and heart rate monitored for 4 hours. On day one 100 mg. was given; if no response or side effects occurred, 200 mg. was given the next day. For purposes of this study a response was defined as a fall in supine blood pressure to a level equal to 0.2 × control systolic pressure +76 mm. Hg. This formula was arbitrarily chosen so that patients with control systolic blood pressure as low as 100 mm. Hg. would be included, and their pressures could be reduced to 96 mm. Hg. Upon completion to the dose finding period, no trimazosin was given for the next 24 hours to allow for washout of previous doses. After this, hemodynamic studies were performed employing the predetermined doses; if 200 mg. of trimazosin was ineffective, 300 mg. was given for hemodynamic studies.

[2] = system: forearm veins of patients with congestive heart failure; assay: Forearm venous capacitance by occlusion plethysmography after trimazosin (Example 2); assay type: in vivo, human
Protocol: On the day of hemodynamic studies, diuretics and other vasodilators were withheld but maintenance digitalis doses were given in order to obtain a reasonably steady hemodynamic state. Procainamide was given to the one patient who had been taking it chronically. Right heart catheterization was performed using a triple lumen Swan-Ganz catheter which was inserted percutaneously via an antecubital or femoral vein and positioned with its tip in the pulmonary artery and the proximal lumen in the right atrium [Swan, et al,. N. Engl. J. Med., 283, 447 (1970)]. A brachial artery was cannulated with a short teflon catheter inserted over an 18-guage thin walled needle. Catheters were connected to P23Db Statham pressure transducers and pressures recorded on a Hewlett-Packard multichannel physiological recorder. Transducers were positioned at the mid-chest level with the patient supine, and all measurements were made in this position. Heart rate was monitored from the electrocardiogram. Cardiac outputs were measured by the dye-dilution method using indocyanine green injected into the pulmonary artery and sampled from the brachial artery through a Gilford densitometer connected to the recorder. Forearm venous capacitance was measured by occlusion plethysmography employing a Whitney mercury-in-rubber resistance guage [Cohen, et al., Clin. Sci., 30, 267 (1966) and Mason, et al., Circulation, 32, 756 (1965)]. For this determination, the forearm was elevated and suspended in a cradle. The venous occluding cuff was inflated to 30 mm. Hg. and forearm girth allowed to equilibrate over 2-3 minutes. The change in forearm girth at this point was taken as a measure of venous capacitance.
Hemodynamic measurements were made before and at hourly intervals for 4 hours after administration of trimazosin. […] Systemic vascular resistance was calculated as the difference between means systemic arterial and right atrial pressures divided by cardiac output. Pulmonary vascular resistance was calculated as mean pulmonary arterial pressure divided by cardiac output. […]

[3] = system: patients with chronic left sided congestive heart failure; assay: Improvement of symptoms and roentgenographic pulmonary venous congestion, trimazosin (Example 3); assay type: in vivo, human
From the text: After baseline measurements, all 16 patients received one capsule of single-blind placebo three times daily for two weeks. The patients then received in a double-blind, randomized study trimazosin or placebo for six weeks. Eight patients received one placebo capsule three times daily for weeks one and two, two placebo capsules three times daily for weeks three and four, and three placebo capsules three times daily for weeks five and six of the double-blind period. Seven patients received one 50 mg. trimazosin capsule three times daily for weeks one and two, two 50 mg. trimazosin capsules three times daily for weeks three and four, and three 50 mg. trimazosin capsules three times daily for weeks five and six of the double-blind period. One patient (patient number five on trimazosin) received one 50 mg. trimazosin capsule three times daily for 32 days. Their trimazosin dose was not increased after two weeks of this dose because their standing systolic blood pressure was 104/70 mm. Hg.
The patients were seen by one of the investigators, questioned for symptoms, and given a physical examination in the baseline period, at the end of two weeks of single-blind placebo, and at the end of weeks one, two, three, four, five, and six on double-blind medication. […]
The data listed in Tables 1-4 were analyzed using Student's t test for independent means. […]

adrenergic = assay: Adrenergic blocking activity of trimazosin
From the text: This observation might have important clinical implications since other vasodilators may be contraindicated in patients with compensated ischemic heart disease who may develop tachycardia and increased myocardial oxygen requirements [Sonnenblick, et al., N. Engl. J. Med., 285, 688 (1971)] in response to vasodilators.

clinical = conditions: human, po
[4] = 200 mg. trimazosin oral, mean of 4, ns
[5] = 200 mg. trimazosin, patient no. 4

With `COc1cc2c(N)nc(N3CCN(C(=O)OCC(C)(C)O)CC3)nc2c(OC)c1OC` [trimazosin, 2-hydroxy-2-methylpropyl 4-(4-amino-6,7,8-trimethoxy-2-quinazolinyl)-1-piperazinecarboxylate] the “Change in Heart Rate at Peak” value ([1]; 100 mg. trimazosin oral) was -4 beats/min. and -2 beats/min. and -15 beats/min. and -10 beats/min, the “Change in Systolic Pressure at Peak” value ([1]; 100 mg. trimazosin oral) was -4 mm.Hg. and -22 mm.Hg. and -8 mm.Hg. and -16 mm.Hg. and -9 mm.Hg and the “Time to Peak Effect” value ([1]; 100 mg. trimazosin oral) was 240 min and 120 min and 180 min and 90 min. For the same compound, the “Time to Peak Effect, mean” value ([1]; 100 mg. trimazosin oral, mean of 6) was 155.0 min, the “Change in Systolic Pressure at Peak, mean” value ([1]; 100 mg. trimazosin oral, mean of 6, P <0.02) was -10.5 mm.Hg and the “Change in Heart Rate at Peak, mean” value ([1]; 100 mg. trimazosin oral, mean of 6, P <0.05) was -6.5 beats/min. For the same compound, the desired hypotensive response ([1]; 100 mg. trimazosin, of six patients) was 2 patients (nos. 5 and 6), the “Change in Heart Rate at Peak” value ([1]; 200 mg. trimazosin oral) was 15 beats/min. and -3 beats/min. and 2 beats/min. and -1 beats/min and the “Change in Systolic Pressure at Peak” value ([1]; 200 mg. trimazosin oral) was -21 mm.Hg. and -20 mm.Hg. and -8 mm.Hg. and -1 mm.Hg. The “Time to Peak Effect” value ([1]; 200 mg. trimazosin oral) was 240 min and 90 min and 210 min and 180 min, the “Time to Peak Effect, mean” value ([1]; 200 mg. trimazosin oral, mean of 4) was 180.0 min and the “Change in Heart Rate at Peak, mean” value [1, 4] was 3.3 beats/min. For the same compound, the “Change in Systolic Pressure at Peak, mean” value [1, 4] was -12.5 mm.Hg, the “systolic pressure lowered to the desired goal” value ([1]; 200 mg. trimazosin, of four patients) was 2 patients (nos. 1 and 2) and the “desired reduction in systolic pressure and side effects” value ([1]; 200 mg. trimazosin, patient no. 3) was “neither the desired reduction in systolic pressure nor side effects”. For the same compound, the side effect [1, 5] was “orthostatic light-headedness”, the supine systolic pressure [1, 5] was “essentially no fall” and the standing systolic pressure ([1]; 200 mg. trimazosin, patient no. 4, fell from 103) was 91 mm. Hg. The “increase in forearm venous capacitance” value ([2]; 2 hours after trimazosin) was 35%, the forearm venous capacitance ([2]; 2 hours after trimazosin, before 0.83 ± 0.18) was 1.12 ± 0.22 ml./100 gm and the “increase in forearm venous capacitance” value ([2]; one patient with normal pulmonary wedge pressure) was 50%. The “disappearance of pulmonary venous congestion on chest roentgenogram” value ([3]; vs. none of eight on placebo, p=0.038) was “Four of the eight patients”, the “good or excellent improvement in symptoms” value ([3]; vs. one of eight on placebo, p=0.020) was “Six of the eight patients” and the adrenergic blocking activity (adrenergic) was “does not possess adrenergic blocking activity”. It also gave a half-life (clinical; in vivo) of 3 to 6 h and a Tmax (clinical; plasma) of 1 to 2 h.
